Data: patent publication US9593149B2, “Amylin and calcitonin receptor agonist” (Novo Nordisk A/S, priority 2014, dated 2017)
In brackets after ≈: the same amount, converted by molar mass. Numbered stars: 1 amine (or outer) side, 2 acyl side, 3 side chain; on linkers, the order of the positions; unused ones are H or OH. Peptide text beside a SMILES is read from it. * marks the point of attachment. C20 diacid = O=C(O)CCCCCCCCCCCCCCCCCCC(=O)*; C18 diacid = O=C(O)CCCCCCCCCCCCCCCCC(=O)*; γGlu = O=C(O)[C@H](CCC(=O)[*:2])N[*:1]

Assay: Assay (IV) determination of solubility
Assay type: physicochemical
Description: Assay (IV)—Determination of Solubility
The mimylin peptide was dissolved in water at ˜500 nmol/ml and mixed 1:1 with a series of buffers (100 mM glycylglycine pH 3.0, 100 mM glycylglycine pH 4.0, 100 mM glycylglycine pH 5.0, 100 mM bistrispropane pH 6.0, 100 mM bistrispropane pH 6.5, 100 mM bistrispropane pH 7.0, 100 mM bistrispropane pH 7.5, 100 mM bistrispropane pH 8.0).

| SMILES | Solubility (pH 3.0) | Solubility (pH 4.0) | Solubility (pH 5.0) | solubility at 18 h (pH 6.0) | Solubility (pH 6.5) | Solubility (pH 7.0) | Solubility (pH 7.5) | Solubility (pH 8.0) | Solubility (pH 3) | Solubility (pH 4) | Solubility (pH 5) | Solubility (pH 6) | Solubility (pH 7) | Solubility (pH 8) | solubility at 18 h (pH 4.0) | solubility at 18 h (pH 5.0) | Solubility (pH 6.0) |
| --- | --- | --- | --- | --- | --- | --- | --- | --- | --- | --- | --- | --- | --- | --- | --- | --- | --- |
| CC(C)C[C@H](NC(=O)[C@H](C)NC(=O)[C@H](C)NC(=O)[C@@H](NC(=O)[C@H](CO)NC(=O)[C@H](CC(C)C)NC(=O)[C@H](CCC(N)=O)NC(=O)[C@H](CO)NC(=O)[C@H](C)NC(=O)CC[C@H](NC(=O)CCCCCCCCCCCCCCCCC(=O)O)C(=O)O)[C@@H](C)O)C(=O)NCC(=O)N[C@@H](CCCNC(=N)N)C(=O)N[C@@H](CC(C)C)C(=O)N[C@@H](CO)C(=O)N[C@@H](C)C(=O)N[C@@H](CCC(N)=O)C(=O)N[C@@H](CC(C)C)C(=O)N[C@@H](Cc1cnc[nH]1)C(=O)N[C@@H](CCC(=O)O)C(=O)N[C@@H](CC(C)C)C(=O)N[C@@H](C)C(=O)N[C@H](C(=O)N[C@@H](CC(C)C)C(=O)N1CCC[C@H]1C(=O)N[C@@H](CCCNC(=N)N)C(=O)N[C@H](C(=O)N[C@@H](CCC(=O)O)C(=O)N[C@H](C(=O)NCC(=O)N[C@@H](CO)C(=O)NCC(=O)N[C@@H](CO)C(=O)N1CCC[C@H]1C(N)=O)[C@@H](C)O)[C@@H](C)O)[C@@H](C)O [compound 87, [N-terminal(C18 diacid-gGlu), des1, 4Q, 16Q, 30S, 31G]mimylin] ({C18 diacid-γGlu}-ASQLSTAALGRLSAQLHELATLPRTETGSGSP-NH2) |  |  |  |  | ≧200 μM |  | ≧200 μM |  | ≧200 μM | ≧200 μM | ≧200 μM | ≧200 μM | ≧200 μM | ≧200 μM |  |  |  |
| CC(C)C[C@H](NC(=O)[C@H](C)NC(=O)[C@H](C)NC(=O)[C@@H](NC(=O)[C@H](CO)NC(=O)[C@H](CC(C)C)NC(=O)[C@H](CCC(=O)O)NC(=O)[C@H](CO)NC(=O)[C@H](C)NC(=O)CC[C@H](NC(=O)CCCCCCCCCCCCCCCCCCC(=O)O)C(=O)O)[C@@H](C)O)C(=O)NCC(=O)N[C@@H](Cc1cnc[nH]1)C(=O)N[C@@H](CC(C)C)C(=O)N[C@@H](CO)C(=O)N[C@@H](C)C(=O)N[C@@H](CCC(=O)O)C(=O)N[C@@H](CC(C)C)C(=O)N[C@@H](Cc1cnc[nH]1)C(=O)N[C@@H](CCC(=O)O)C(=O)N[C@@H](CC(C)C)C(=O)N[C@@H](C)C(=O)N[C@H](C(=O)N[C@@H](CC(C)C)C(=O)N1CCC[C@H]1C(=O)N[C@@H](Cc1cnc[nH]1)C(=O)N[C@H](C(=O)N[C@@H](CCC(=O)O)C(=O)N[C@H](C(=O)NCC(=O)N[C@H](C(=O)NCC(=O)N[C@H](C(=O)N1CCC[C@H]1C(N)=O)[C@@H](C)O)[C@@H](C)O)[C@@H](C)O)[C@@H](C)O)[C@@H](C)O [compound 93, [N-terminal(C20 diacid-gGlu), des1, 12H, 25H, 30T, 31G, 32T]mimylin] ({C20 diacid-γGlu}-ASELSTAALGHLSAELHELATLPHTETGTGTP-NH2) | ≧200 μM | ≧200 μM | ≧200 μM |  | ≧200 μM | ≧200 μM | ≧200 μM | ≧200 μM |  |  |  |  |  |  |  |  | ≧200 μM |

Results, then the compound that gave them:

| Solubility (pH 3.0) | Solubility (pH 4.0) | Solubility (pH 5.0) | solubility at 18 h (pH 6.0) | Solubility (pH 6.5) | Solubility (pH 7.0) | Solubility (pH 7.5) | Solubility (pH 8.0) | Solubility (pH 3) | Solubility (pH 4) | Solubility (pH 5) | Solubility (pH 6) | Solubility (pH 7) | Solubility (pH 8) | solubility at 18 h (pH 4.0) | solubility at 18 h (pH 5.0) | Solubility (pH 6.0) | SMILES |
| --- | --- | --- | --- | --- | --- | --- | --- | --- | --- | --- | --- | --- | --- | --- | --- | --- | --- |
| ≧200 μM | ≧200 μM | ≧200 μM | 38 µM (≈ 139 µg/mL) | ≧200 μM | ≧200 μM | ≧200 μM | ≧200 μM |  |  |  |  |  |  |  |  |  | CC(C)C[C@H](NC(=O)[C@H](CCC(=O)O)NC(=O)[C@H](Cc1cnc[nH]1)NC(=O)[C@H](CC(C)C)NC(=O)[C@H](CCC(=O)O)NC(=O)[C@H](C)NC(=O)[C@H](CO)NC(=O)[C@H](CC(C)C)NC(=O)[C@H](CCCNC(=N)N)NC(=O)CNC(=O)[C@H](CC(C)C)NC(=O)[C@@H](NC(=O)[C@H](C)NC(=O)[C@@H](NC(=O)[C@H](CO)NC(=O)[C@@H](NC(=O)[C@H](CCC(=O)O)NC(=O)[C@H](CO)NC(=O)[C@H](C)NC(=O)CC[C@H](NC(=O)CCCCCCCCCCCCCCCCC(=O)O)C(=O)O)C(C)C)[C@@H](C)O)C(C)C)C(=O)N[C@@H](C)C(=O)N[C@H](C(=O)N[C@@H](CC(C)C)C(=O)N1CCC[C@H]1C(=O)N[C@@H](CCCNC(=N)N)C(=O)N[C@H](C(=O)N[C@@H](CCC(=O)O)C(=O)N[C@H](C(=O)NCC(=O)N[C@@H](CO)C(=O)NCC(=O)N[C@@H](CO)C(=O)N1CCC[C@H]1C(N)=O)[C@@H](C)O)[C@@H](C)O)[C@@H](C)O [compound 86, [N-terminal(C18 diacid-gGlu), des1, 5V, 9V, 30S, 31G]mimylin] ({C18 diacid-γGlu}-ASEVSTAVLGRLSAELHELATLPRTETGSGSP-NH2) |
| ≧200 μM |  |  |  | ≧200 μM | ≧200 μM | ≧200 μM | ≧200 μM |  |  |  |  |  |  | 1 µM (≈ 3.79 µg/mL) | 6 µM (≈ 22.8 µg/mL) | ≧200 μM | CC(C)C[C@H](NC(=O)[C@H](C)NC(=O)[C@H](C)NC(=O)[C@@H](NC(=O)[C@H](CO)NC(=O)[C@H](CC(C)C)NC(=O)[C@H](CCC(=O)O)NC(=O)[C@H](CO)NC(=O)[C@H](C)NC(=O)CC[C@H](NC(=O)CCCCCCCCCCCCCCCCCCC(=O)O)C(=O)O)[C@@H](C)O)C(=O)NCC(=O)N[C@@H](CCCNC(=N)N)C(=O)N[C@@H](CC(C)C)C(=O)N[C@@H](CO)C(=O)N[C@@H](C)C(=O)N[C@@H](CCC(=O)O)C(=O)N[C@@H](CC(C)C)C(=O)N[C@@H](Cc1cnc[nH]1)C(=O)N[C@@H](CCC(=O)O)C(=O)N[C@@H](CC(C)C)C(=O)N[C@@H](C)C(=O)N[C@H](C(=O)N[C@@H](Cc1ccc(O)cc1)C(=O)N1CCC[C@H]1C(=O)N[C@@H](CCCNC(=N)N)C(=O)N[C@H](C(=O)N[C@@H](CCC(=O)O)C(=O)N[C@H](C(=O)NCC(=O)N[C@@H](CO)C(=O)NCC(=O)N[C@@H](CO)C(=O)N[C@@H](Cc1ccc(O)cc1)C(=O)O)[C@@H](C)O)[C@@H](C)O)[C@@H](C)O [compound 88, [N-terminal(C20 diacid-gGlu), des1, 23Y, 30S, 31G, 33Y, C-terminal(−)]mimylin] ({C20 diacid-γGlu}-ASELSTAALGRLSAELHELATYPRTETGSGSY-OH) |
| ≧200 μM |  |  |  | ≧200 μM | ≧200 μM | ≧200 μM | ≧200 μM |  |  |  |  |  |  | 7 µM (≈ 26.7 µg/mL) | 29 µM (≈ 110 µg/mL) | ≧200 μM | CC(C)C[C@H](NC(=O)[C@H](CO)NC(=O)[C@H](C)NC(=O)[C@@H](NC(=O)[C@H](CO)NC(=O)[C@H](CC(C)C)NC(=O)[C@H](CCC(=O)O)NC(=O)[C@H](CO)NC(=O)[C@H](C)NC(=O)CC[C@H](NC(=O)CCCCCCCCCCCCCCCCCCC(=O)O)C(=O)O)[C@@H](C)O)C(=O)NCC(=O)N[C@@H](CCCNC(=N)N)C(=O)N[C@@H](CC(C)C)C(=O)N[C@@H](CO)C(=O)N[C@@H](C)C(=O)N[C@@H](CCC(=O)O)C(=O)N[C@@H](CC(C)C)C(=O)N[C@@H](Cc1cnc[nH]1)C(=O)N[C@@H](CCC(=O)O)C(=O)N[C@@H](CC(C)C)C(=O)N[C@@H](C)C(=O)N[C@H](C(=O)N[C@@H](Cc1ccc(O)cc1)C(=O)N1CCC[C@H]1C(=O)N[C@@H](CCCNC(=N)N)C(=O)N[C@H](C(=O)N[C@@H](CCC(=O)O)C(=O)N[C@H](C(=O)NCC(=O)N[C@@H](CO)C(=O)NCC(=O)N[C@@H](CO)C(=O)N[C@@H](Cc1ccc(O)cc1)C(N)=O)[C@@H](C)O)[C@@H](C)O)[C@@H](C)O [compound 91, [N-terminal(C20 diacid-gGlu), des1, 9S, 23Y, 30S, 31G, 33Y]mimylin] ({C20 diacid-γGlu}-ASELSTASLGRLSAELHELATYPRTETGSGSY-NH2) |
| ≧200 μM | ≧200 μM |  |  | ≧200 μM | ≧200 μM | ≧200 μM | ≧200 μM |  |  |  |  |  |  |  | 169 µM (≈ 638 µg/mL) | ≧200 μM | CC(C)C[C@H](NC(=O)[C@H](CCCNC(=N)N)NC(=O)CNC(=O)[C@H](CC(C)C)NC(=O)[C@@H](NC(=O)[C@H](C)NC(=O)[C@@H](NC(=O)[C@H](CO)NC(=O)[C@H](CC(C)C)NC(=O)[C@H](CCC(=O)O)NC(=O)[C@H](CO)NC(=O)[C@H](C)NC(=O)CC[C@H](NC(=O)CCCCCCCCCCCCCCCCCCC(=O)O)C(=O)O)[C@@H](C)O)[C@@H](C)O)C(=O)N[C@@H](CO)C(=O)N[C@@H](C)C(=O)N[C@@H](CCC(=O)O)C(=O)N[C@@H](CC(C)C)C(=O)N[C@@H](Cc1cnc[nH]1)C(=O)N[C@@H](CCC(=O)O)C(=O)N[C@@H](CC(C)C)C(=O)N[C@@H](CO)C(=O)N[C@H](C(=O)N[C@@H](Cc1ccc(O)cc1)C(=O)N1CCC[C@H]1C(=O)N[C@@H](CCCNC(=N)N)C(=O)N[C@H](C(=O)N[C@@H](CCC(=O)O)C(=O)N[C@H](C(=O)NCC(=O)N[C@@H](CO)C(=O)NCC(=O)N[C@@H](CO)C(=O)N1CCC[C@H]1C(N)=O)[C@@H](C)O)[C@@H](C)O)[C@@H](C)O [compound 92, [N-terminal(C20 diacid-gGlu), des1, 9T, 21S, 23Y, 30S, 31G]mimylin] ({C20 diacid-γGlu}-ASELSTATLGRLSAELHELSTYPRTETGSGSP-NH2) |
